Series [1] concerns CHO cells. Briefly: Viability of CHO cells after 1 day treatment. The settings on record: 0.75 mM, control 98.9%.
Series [2] relates to Humanized FOLR1 IgG1 antibody. Briefly: Antibody disulfide reduction by CHO cell lysate (RIPA buffer), thiol per antibody by Ellman's assay. The settings on record: 2 mM agent. Format: biochemical. In general terms: DTNB colorimetry detects thiols as they appear.
The subject of series [3] is humanized N901 antibody. Nature of the series: Antibody disulfide reduction by CHO cell lysate (RIPA buffer), thiol/antibody by Ellman's assay. Format: biochemical. The protocol:
For all of the examples described below, cell damage was simulated by multiple freeze-thaw cycles of cells, by addition of RIPA buffer (50 mM Tris-HCl, pH 7.4, 1% NP-40, 0.5% sodium deoxycholate, 0.1% sodium dodecylsulfate), or by using microfluidizer. This damaged cell supernatant or lysate was then incubated with a buffered solution containing antibody with or without the anti-reduction agent being tested, following which the extent of the antibody-disulfide reduction was measured using Ellman's assay for thiol (P. W. Riddles, R. L. Blakeley, and B. Zerner, Methods Enzymol., 91, 49-60, 1983) or by non-reducing SDS protein LabChip analysis. The total thiol level present in the mixture of damaged cell supernatant/lysate was measured initially.
The effect of 1,2-naphthoquinone-4-sulfonic acid (NQS) on antibody-disulfide reduction was studied by incubating 1,2-naphthoquinone-4-sulfonic acid at several concentrations with antibody and damaged CHO lysate. The damaged CHO cell lysate was generated by the addition of 0.5 ml RIPA buffer (50 mM Tris-HCl, pH 7.4, 1% NP-40, 0.5% sodium deoxycholate, 0.1% sodium dodecylsulfate) to 100 million CHO cells. The thiol concentration in CHO cell lysate was measured by Ellman's assay as 2.1 mM.
Each sample contained pre-mixed 0.5 ml RIPA buffer (50 mM Tris-HCl, pH 7.4, 1% NP-40, 0.5% sodium deoxycholate, 0.1% sodium dodecylsulfate) with 1 mg humanized N901 antibody, with or without 1,2-naphthoquinone-4-sulfonic acid (25 micromolar, or 50 micromolar, or 100 micromolar), which was added to a cell pellet of 100 million CHO cells, and the resuspended cells were incubated at ambient temperature for 30 minutes, following which the cell debris were pelleted by centrifugation (16,000 g, 5 min). The supernatant from each sample was added to 50 microliter immobilized-Protein A beads (RepliGen) and rotated at ambient temperature for 3 hours, after which the supernatant was removed and the beads washed with PBS.
The thiol content of the immobilized antibody was determined by the addition of 0.6 ml of PBS containing 0.5 mM DTNB (Ellman's reagent) to the beads, rotation for about 10 minutes, centrifugation, and absorbance measurement of supernatant at 412 nm.
The effect of anthraquinone-2-sulfonic acid (AQS) on antibody-disulfide reduction was studied during co-incubation of anthraquinone-2-sulfonic acid with antibody and damaged CHO lysate. Each sample contained pre-mixed 1 ml RIPA buffer (50 mM Tris-HCl, pH 7.4, 1% NP-40, 0.5% sodium deoxycholate, 0.1% sodium dodecylsulfate) with 1 mg humanized N901 antibody, with or without 0.2 mM anthraquinone-2-sulfonic acid (AQS), which was added to a cell pellet of 100 million CHO cells, and the resuspended cells were incubated at ambient temperature for 30 minutes, following which the cell debris were pelleted by centrifugation (16,000 g, 5 min). The thiol concentration in CHO cell lysate was 1 mM (Ellman's assay).
The supernatant from each sample was added to 50 microliter immobilized-Protein A beads (RepliGen) and rotated at ambient temperature for 3 hours, after which the supernatant was removed and the beads washed with PBS. The thiol content of the immobilized antibody was determined by the addition of 0.6 ml of PBS containing 0.5 mM DTNB (Ellman's reagent) to the beads, rotation for about 10 minutes, centrifugation, and absorbance measurement of supernatant at 412 nm.
In another experiment, 1 mg huN901 antibody was incubated with CHO lysate, with or without 0.4 mM anthraquinone-2-sulfonic acid for 4 hours. The mixture was then analyzed for thiol/antibody as above.
The thiol concentration in CHO cell lysate was 1 mM (Ellman's assay).
The supernatant from each sample was added to 50 microliter immobilized-Protein A beads (RepliGen) and rotated at ambient temperature for 3 hours, after which the supernatant was removed and the beads washed with PBS. […]

The test system of series [4] is M9346A antibody. Format: biochemical. Particulars: 1 mM additive, 100 μM DTT, 37° C., 1 h; control 80%.
Series [5] relates to humanized FOLR1 IgG1. Nature of the series: Antibody fragmentation in HCCF treated with 20% (v/v) microfluidized CHO cells, non-reducing SDS-Protein Lab Chip. Format: biochemical. Particulars: 1 mM of each additive, 6 h; control 78% fragmentation.
Description: The samples were quenched with 5 mM N-ethylmaleimide (NEM), purified using immobilized Protein A, and subjected to non-reducing SDS-Protein Lab Chip electrophoretic analysis.
Series [6] deals with Humanized IgG2 antibody. Nature of the series: IgG2 disulfide reduction by CHO cell lysate, DTNB thiol assay. Format: biochemical. The settings on record: 1 mM agent, 40% v/v CHO cell lysate, 5 hours, pH 7; control 0.84. The protocol: Humanized IgG2 antibody (1 mg/ml; final concentration) was incubated with 40% v/v CHO cell lysate (˜40 million cells lysed with 0.4 ml RIPA buffer and debris removed by centrifugation) in a total volume of 1 ml. The control sample was adjusted to pH 7 and rotated at RT for 5 hours with 100 μl protein A beads. […] After the incubation time of 5 hours, the supernatant was removed and the beads were washed three times with 10 ml PBS before the thiol amount of the immobilized antibody was analyzed by adding 0.5 mM DTNB and measuring the absorbance at 412 nm.

Series [7] relates to M9346A antibody. Format: biochemical. The settings on record: 1 mM additive, conditions where control without additive was 100% fragmented. Here is the method: Antibody reduction was induced in a biological assay by adding cell lysate to purified monoclonal antibody. […]. Increasing amounts of CHO cell lysate were added to mimic different percentages of cell lysis, ranging from […]. Fresh NADPH was added to a concentration of 400 μM. The mixtures were incubated in a water bath at 37° C. for 1 h. Free thiols were alkylated by addition of 10% (v/v) of 50 mM N-ethyl-maleimide (NEM) solution. Samples were analyzed by non-reduced sodium dodecyl sulfate denaturing capillary electrophoresis (NR-CE-SDS).
To test the capacity for protection further, the stringency of the assay was increased. […].

Series [8] relates to humanized IgG4. Nature of the series: IgG4 disulfide reduction by CHO cell lysate, DTNB thiol assay. Particulars: 1 mM agent, 30% v/v CHO cell lysate, 4 hours, pH 7; control 7.7. Format: biochemical. Here is the method: All samples were adjusted to pH 7 and incubated with 200 μl protein A beads for 4 hours while rotating at room temperature. After the incubation the supernatant was removed and beads washed three times with 10 ml PBS. To analyze the thiol content of the protein A-bound IgG4 antibody, the beads were incubated with a 0.5 mM DTNB solution for 5 min and the absorbance of the supernatant measured at 412 nm.

In series [9] the test system is recombinant humanized IgG1 antibody. Nature of the series: Antibody fragmentation in thawed HCCF under nitrogen or air with CDME, non-reducing SDS-Protein Lab Chip. Format: biochemical. The protocol: A CHO cell culture producing recombinant humanized IgG1 antibody was subjected to centrifugation and the resulting harvest cell culture fluid (HCCF) was frozen at −80° C. […] At various time points, samples were quenched with N-ethylmaleimide (NEM), purified using immobilized Protein A, and analyzed for fragments using non-reducing SDS-Protein Lab Chip electrophoresis. […] In contrast, the sample overlayed with air became less fragmented with time, reaching a plateau of about 25% fragmentation at 20 hours.

Series [10] can be described thus: Redox potential of antibody solution with media additive over a range of DTT concentrations. Format: physicochemical. The settings on record: 1 mM additive, DTT 0.34 μM to 170 μM, 37° C., 1 h.

These results are taken from US11945862B2, “Compositions and methods for antibody production” (ImmunoGen, Inc., priority 2017, dated 2024).

For the compound `COC(=O)[C@@H](N)CSSC[C@H](N)C(=O)OC` [CDME, L-cystine dimethyl ester], the “viability of CHO cells” value in series [1] was determined as 98.9%. Moreover, the “decrease in disulfide reduction compared to the control” value in series [2] (100 mM phosphate buffer pH 7, 2 hours) was around 89%. Besides, the thiol per antibody in series [2] (100 mM phosphate buffer pH 7, 2 hours, control 1.16) is around 0.13 thiol per antibody; in [2] (3 hours, pH 7, lysate of ~40 million cells, control 0.95), “about 0.02 thiol per antibody”; in [2] (3 hours, pH 7, lysate of ~60 million cells, control 1.96), “about 0.25 thiol per antibody”. Also, the thiol/antibody in series [3] (0.05 mM agent, 3 hours, lysate thiol 1 mM, control 5.20) amounted to 2.75 thiol/antibody; in series [3] (0.1 mM agent, 3 hours, lysate thiol 1 mM, control 5.20) it was 1.85 thiol/antibody; in series [3] (0.2 mM agent, 3 hours, lysate thiol 1 mM, control 5.20), 1.56 thiol/antibody; in series [3] (0.4 mM agent alone, 4 hours, control 4.34) it was 1.37 thiol/antibody; in [3] (0.5 mM agent, 3 hours, lysate thiol 1 mM, control 5.20) it was 1.19 thiol/antibody; in series [3] (0.75 mM agent, 4° C. overnight, control 2.29), 0.96 thiol/antibody. Further, in [4], the intact antibody was determined as 100%. Further, in series [5], the “fragmentation compared with no additive control” value is listed as “much lower fragmentations”. Further, the “reduced thiols per antibody” value in series [6] is listed as “near-zero reduction”. In addition, the “protection at increased assay stringency” value in [7] is “protective of disulfide reduction”. For the same compound, the “thiol groups per antibody” value in series [8] was 0.004 thiol groups per antibody. Also, the “time the antibody was protected from reduction” value in [9] (1 mM CDME with nitrogen) was “up to 20 hours”; in series [9] (2 mM CDME with nitrogen), at most 45 h. Further, the “expected protection against antibody disulfide bond reduction” value in [9] (combination of oxygen sparging with CDME) was “highly effective”. Moreover, in series [9] (~1 mM CDME with air overlay, up to 72 hours), the “fragmentation with air overlay plus agent versus air overlay alone” value is given as “lowered the fragmentation further throughout the course of the study”. The “modulation of redox potential” value in series [10] is given as “constant redox potential across all DTT concentrations”.
